The values that follow come from patent US8575158B2, “1-phenyl-substituted heterocyclyl derivatives and their use as prostaglandin D2 receptor modulators” (Actelion Pharmaceuticals Ltd., priority 2010, dated 2013).

Usually IC50 stands for the concentration needed to halve the response being measured. Read a high IC50 as a need for much substance.

The target of the assay is T1, hCRTH2 receptor (Homo sapiens, UniProt Q9Y5Y4).
T1 construct: expressed in transfected cells; host or cells: HEK293
T1 sequence (Q9Y5Y4 1-395): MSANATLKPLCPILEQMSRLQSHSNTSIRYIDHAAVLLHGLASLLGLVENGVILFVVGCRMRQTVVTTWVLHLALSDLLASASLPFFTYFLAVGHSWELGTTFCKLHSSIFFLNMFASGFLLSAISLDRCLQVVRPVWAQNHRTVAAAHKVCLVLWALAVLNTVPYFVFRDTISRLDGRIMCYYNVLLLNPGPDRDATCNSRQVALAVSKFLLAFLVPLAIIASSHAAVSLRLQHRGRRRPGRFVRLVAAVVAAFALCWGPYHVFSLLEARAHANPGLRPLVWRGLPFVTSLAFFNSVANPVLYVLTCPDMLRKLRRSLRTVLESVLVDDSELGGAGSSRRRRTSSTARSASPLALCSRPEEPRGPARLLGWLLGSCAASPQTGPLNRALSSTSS
Put plainly: Radioligand displacement assay (3H-PGD2) on hCRTH2 receptor membranes. It counts as binding. The conditions noted are these: antagonistic activity. For orientation: Loss of bound radioactivity is the signal in a displacement assay; it reports binding, not function.

The mark [1] stands for this setting: 3H-PGD2 displacement on HEK293-hCRTH2 membrane fragments.
The mark [2] stands for this setting: 3H-PGD2 radioligand displacement, HEK293-hCRTH2 membranes.
Where [3] appears, read: radioligand displacement (3H-PGD2), hCRTH2 receptor membranes.

Under setting [1], `O=C(O)COc1ccc(F)cc1C1c2ccccc2CCN1C(=O)/C=C/c1ccccc1F` (racemic) [Example 141, (±)-(4-Fluoro-2-{2-[(E)-3-(2-fluoro-phenyl)-acryloyl]-1,2,3,4-tetrahydro-isoquinolin-1-yl}-phenoxy)-acetic acid] showed an IC50 of 835 nM.

In the case of `O=C(O)COc1ccc(Cl)cc1C1c2ccccc2CCN1C(=O)CCn1ccc2cccnc21` (racemic) [Example 369], the IC50 under setting [2] worked out at 195 nM. That is a sub-micromolar value. For `Cc1conc1COC(=O)N1CCc2c(ccc(F)c2F)[C@H]1c1cc(Cl)ccc1OCC(=O)O` [Example 306, (S)-1-(2-Carboxymethoxy-5-chloro-phenyl)-5,6-difluoro-3,4-dihydro-1H-isoquinoline-2-carboxylic acid 4-methyl-isoxazol-3-ylmethyl ester], the IC50 under setting [2] worked out at 3.12 nM.

As to `C[C@H](OC(=O)N1CCc2ccccc2[C@H]1c1cc(Cl)ccc1OCC(=O)O)c1ccccc1` [Example 261], the IC50 under setting [1] amounted to 97.1 nM. `Cc1cc(COC(=O)N2CCc3cc(F)ccc3[C@H]2c2cc(Cl)ccc2OCC(=O)O)n(C)n1` [Example 338, (S)-1-(2-Carboxymethoxy-5-chloro-phenyl)-6-fluoro-3,4-dihydro-1H-isoquinoline-2-carboxylic acid 2,5-dimethyl-2H-pyrazol-3-ylmethyl ester]: the half-inhibitory concentration (IC50) under setting [2] stood at 3.13 nM. Consider `O=C(O)COc1ccc(C(F)(F)F)cc1C1c2ccccc2CCN1C(=O)OCc1ccccc1` (racemic) [Example 20, (±)-1-(2-Carboxymethoxy-5-trifluoromethyl-phenyl)-3,4-dihydro-1H-isoquinoline-2-carboxylic acid benzyl ester], for which, under setting [1], the IC50 is 50.7 nM. Turning to `O=C(COc1ccc(Cl)cc1[C@@H]1c2ccccc2CCN1C(=O)OCc1ccccc1)NS(=O)(=O)C(F)(F)F` [Example 568, (S)-1-[5-Chloro-2-(2-oxo-2-trifluoromethanesulfonylamino-ethoxy)-phenyl]-3,4-dihydro-1H-isoquinoline-2-carboxylic acid benzyl ester], the IC50 under setting [3] came to 9.18 nM. `O=C(O)COc1ccc(Cl)cc1[C@@H]1c2ccc(F)cc2CCN1C(=O)CCn1ncc2c(Cl)cccc21` [Example 402] had an IC50 under setting [2] of 170 nM.

`CN(C)S(=O)(=O)c1ccc(OCC(=O)O)c(C2c3ccccc3CCN2C(=O)OCc2ccccc2)c1` (racemic) [Example 17, (±)-1-(2-Carboxymethoxy-5-dimethylsulfamoyl-phenyl)-3,4-dihydro-1H-isoquinoline-2-carboxylic acid benzyl ester] registered a concentration for half-maximal inhibition (IC50) under setting [1] of 889 nM. This lies in the sub-micromolar range. In turn, `O=C(O)COc1ccc(Cl)cc1[C@@H]1c2ccccc2CCN1C(=O)OCc1nccs1` [Example 273, (S)-1-(2-Carboxymethoxy-5-chloro-phenyl)-3,4-dihydro-1H-isoquinoline-2-carboxylic acid thiazol-2-ylmethyl ester] had an IC50 under setting [1] of 2.04 nM. `Cc1ccccc1[C@H]1C[C@@H]1C(=O)N1CCc2ccccc2[C@H]1c1cc(Cl)ccc1OCC(=O)O` [Example 561, {4-Chloro-2-[(S)-2-((1S,2S)-2-o-tolyl-cyclopropanecarbonyl)-1,2,3,4-tetrahydro-isoquinolin-1-yl]-phenoxy}-acetic acid] came in with an IC50 under setting [3] of 274 nM. Under setting [2], `O=C(O)COc1ccc(Cl)cc1[C@@H]1c2ccc(F)cc2CCN1C(=O)CCn1ncc2c(F)cccc21` [Example 399] showed an IC50 of 144 nM. In other words, the sub-micromolar range.

`O=C(O)COc1ccc(Cl)cc1C1c2ccc(F)cc2CCN1C(=O)[C@@H]1C[C@H]1c1ccccc1` (mixture of isomers) [Example 428] had an IC50 under setting [2] of 1.33 nM. Compared with the last molecule, the IC50 is about 110-fold lower.

The molecule `O=C(O)COc1ccc(Cl)cc1[C@@H]1c2ccc(F)cc2CCN1C(=O)CCn1ncc2ccc(F)cc21` [Example 398] displayed an IC50 under setting [2] of 64.7 nM. Regarding `O=C(O)COc1ccc(Cl)cc1C1c2ccccc2CCN1C(=O)COc1cncc(Cl)c1` (racemic) [Example 470], under setting [2], the IC50 is 152 nM.

Regarding `CCCCOC(=O)N1CCc2ccccc2C1c1cc(Cl)ccc1OCC(=O)O` (racemic) [Example 266], the IC50 under setting [1] was 24.5 nM.

Under setting [1], `C[C@@H](Oc1ccc(F)cc1[C@@H]1c2ccccc2CCN1C(=O)OCc1ccccc1)C(=O)O` [Example 27, (S)-1-[2-((R)-1-Carboxy-ethoxy)-5-fluoro-phenyl]-3,4-dihydro-1H-isoquinoline-2-carboxylic acid benzyl ester] returned an IC50 of 12.1 nM. Against the preceding molecule, the IC50 is about 2-fold lower. As to `O=C(O)COc1ccc(Cl)cc1C1c2ccccc2CCN1C(=O)CCn1cnc2ccccc21` (racemic) [Example 451], the IC50 under setting [2] turned out to be 64.1 nM.

The molecule `O=C(O)COc1ccc(Cl)cc1[C@@H]1c2ccc(F)cc2CCN1C(=O)OCc1cccc(F)c1` [Example 353, (S)-1-(2-Carboxymethoxy-5-chloro-phenyl)-6-fluoro-3,4-dihydro-1H-isoquinoline-2-carboxylic acid 3-fluoro-benzyl ester] displayed an IC50 under setting [2] of 2.79 nM. Consider `Cc1ccc(OCC(=O)N2CCc3cc(F)ccc3C2c2cc(Cl)ccc2OCC(=O)O)c(C)n1` (racemic) [Example 432], for which the IC50 under setting [2] came to 40.6 nM. `COc1ccc2onc(CC(=O)N3CCc4ccccc4C3c3cc(Cl)ccc3OCC(=O)O)c2c1` (racemic) [Example 101, (±)-(4-Chloro-2-{2-[2-(5-methoxy-benzo[d]isoxazol-3-yl)-acetyl]-1,2,3,4-tetrahydro-isoquinolin-1-yl}-phenoxy)-acetic acid] yielded an IC50 under setting [1] of 19.6 nM. Under setting [1], `Cn1cc(CCC(=O)N2CCc3ccccc3C2c2cc(Cl)ccc2OCC(=O)O)c2ccccc21` (racemic) [Example 76, (±)-(4-Chloro-2-{2-[3-(1-methyl-1H-indol-3-yl)-propionyl]-1,2,3,4-tetrahydro-isoquinolin-1-yl}-phenoxy)-acetic acid] showed an IC50 of 4.46 nM. Against the preceding molecule, the IC50 is about 4.4-fold lower.

The molecule `Cc1ccc(OCC(=O)N2CCc3ccccc3C2c2cc(Cl)ccc2OCC(=O)O)c(C)c1` (racemic) [Example 456] yielded an IC50 under setting [2] of 43.6 nM. Molecule `O=C(O)COc1ccc(Cl)cc1C1c2ccccc2CCN1C(=O)OCc1ccc(Cl)cc1Cl` (racemic) [Example 241] registered an IC50 under setting [1] of 0.96 nM. Under setting [2], `O=C(O)COc1ccc(Cl)cc1C1c2ccccc2CCN1C(=O)OCc1ccc(F)cc1` (racemic) [Example 362] had an IC50 of 14.3 nM.

Molecule `O=C(O)COc1ccc(Cl)cc1C1c2ccccc2CN1C(=O)CCn1ncc2ccc(Cl)cc21` (centres unmarked) [Example 549] yielded an IC50 under setting [2] of 180 nM. Compared with the last molecule, the IC50 is about 13-fold higher.

For the molecule `CC1(C)CN(C(=O)OCc2ccccc2)C(c2cc(Cl)ccc2OCC(=O)O)c2ccccc21` (racemic) [Example 180, (±)-1-(2-Carboxymethoxy-5-chloro-phenyl)-4,4-dimethyl-3,4-dihydro-1H-isoquinoline-2-carboxylic acid benzyl ester], the IC50 under setting [1] is 151 nM. In other words, the sub-micromolar range. `O=C(O)COc1ccc(Cl)cc1C1c2ccccc2CCN1C(=O)NCc1ccc(F)cc1` (racemic) [Example 494] registered a 50% inhibitory concentration (IC50) under setting [2] of 17 nM. Turning to `Cc1ccccc1[C@@H]1C[C@H]1C(=O)N1CCc2cc(F)ccc2C1c1cc(Cl)ccc1OCC(=O)O` (mixture of isomers) [Example 431], the IC50 under setting [2] is 3.56 nM. Under setting [1], `C[C@@H](Oc1ccc(Cl)cc1C1c2ccccc2CCN1C(=O)OCc1ccccc1)C(=O)O` (stereo partly drawn) [Example 220, 1-[2-((R)-1-Carboxy-ethoxy)-5-chloro-phenyl]-3,4-dihydro-1H-isoquinoline-2-carboxylic acid benzyl ester] returned an IC50 of 21 nM. Consider `Cc1ccc2onc(CC(=O)N3CCc4ccccc4C3c3cc(Cl)ccc3OCC(=O)O)c2c1` (racemic) [Example 100, (±)-(4-Chloro-2-{2-[2-(5-methyl-benzo[d]isoxazol-3-yl)-acetyl]-1,2,3,4-tetrahydro-isoquinolin-1-yl}-phenoxy)-acetic acid], for which the IC50 under setting [1] was determined as 205 nM. The molecule `O=C(O)COc1ccc(Cl)cc1[C@@H]1c2ccccc2CCN1C(=O)OCc1nc2ccccc2o1` [Example 295, (S)-1-(2-Carboxymethoxy-5-chloro-phenyl)-3,4-dihydro-1H-isoquinoline-2-carboxylic acid benzooxazol-2-ylmethyl ester] returned an IC50 under setting [2] of 7.41 nM. `COc1ccc(COCC(=O)N2CCc3ccccc3C2c2cc(F)ccc2OCC(=O)O)cc1` (racemic) [Example 196] yielded a half-inhibitory concentration (IC50) under setting [1] of 146 nM. Molecule `O=C(O)COc1c(F)cc(F)cc1C1c2ccccc2CCN1C(=O)OCc1ccccc1` (racemic) [Example 33, (±)-1-(2-Carboxymethoxy-3,5-difluoro-phenyl)-3,4-dihydro-1H-isoquinoline-2-carboxylic acid benzyl ester] yielded a half-inhibitory concentration (IC50) under setting [1] of 196 nM. `O=C(O)COc1ccc(F)cc1C1c2ccccc2CCN1C(=O)NCc1ccccc1` (racemic) [Example 199] came in with an IC50 under setting [1] of 54 nM.

On to `O=C(O)COc1ccc(Cl)cc1[C@@H]1c2ccccc2CCN1C(=O)OCc1cncnc1` [Example 284, (S)-1-(2-Carboxymethoxy-5-chloro-phenyl)-3,4-dihydro-1H-isoquinoline-2-carboxylic acid pyrimidin-5-ylmethyl ester], for which, under setting [2], the IC50 came out at 0.86 nM.

Turning to `CN(CC(=O)N1CCc2ccccc2C1c1cc(F)ccc1OCC(=O)O)S(=O)(=O)c1ccc(F)c(F)c1` (racemic) [Example 212], under setting [1], the half-inhibitory concentration (IC50) stood at 920 nM. Same read-out and setting: the figure for `O=C(O)COc1ccc(Cl)cc1C1c2ccccc2CCN1C(=O)CCc1cccc(C(F)(F)F)c1` (racemic) [Example 81, (±)-(4-Chloro-2-{2-[3-(3-trifluoromethyl-phenyl)-propionyl]-1,2,3,4-tetrahydro-isoquinolin-1-yl}-phenoxy)-acetic acid] is 27.5 nM.
